Data set [1] concerns metastatic head and neck cancer. Description: 5-FU infusion in a patient with metastatic head and neck cancer. The format is in vivo. The following applies: one patient; 1000 mg/m^2 per 24 hours, 120 hours infusion; evaluated after one and a half month. As to the method: A patient with metastatic head and neck cancer was treated with 5-fluorouracil (5-FU) infusion at a dose of 1000 mg/m^2 per 24 hours. The total infusion time was 120 hours.

For data set [2] the following is noted: cited from earlier work.
The subject of the next data set is breast cancer. To be noted: in vivo; cited from earlier work.

For `O=c1[nH]cc(F)c(=O)[nH]1` [5-FU, 5-Fluorouracil], the treatment response entry in data set [1] was “progressive disease”.

Regarding `CCCCCOC(=O)Nc1nc(=O)n([C@@H]2O[C@H](C)[C@@H](O)[C@H]2O)cc1F` [capecitabine], the “higher concentrations in tumor tissue compared to plasma” value in data set [2] (tumor tissue vs plasma) is 21 fold. In data set [2] (tumor vs normal tissue), the “higher FU concentration in tumor compared to normal tissue” value is 3.2 fold.

`COc1cccc2c1C(=O)c1c(O)c3c(c(O)c1C2=O)C[C@@](O)(C(=O)CO)C[C@@H]3O[C@H]1C[C@H](N)[C@@H](O)[C@H](C)O1` [epirubicin]: in the data set with breast cancer, the “reduction in overall survival on substitution of methotrexate in CMF with epirubicin” value was 25%.

The values are drawn from patent US8679746B2, “Compositions and methods for predicting outcome of treatment” (Dako Denmark A/S, priority 2005, dated 2014).
